Reference: paper PMC10987949, “Inhibition of HIV-1 release by ADAM metalloproteinase inhibitors” (Frontiers in Microbiology, 2024)
Entries after “also recorded” stand apart in the source; their conditions may differ.

Legend:
[1] = molecular target: T1, recombinant ADAM17 (Homo sapiens, UniProt P78536); assay: Kinetic cleavage of fluorogenic TNF-α peptide ES003 by recombinant ADAM17; format: biochemical; conditions: for Ki: ES003 substrate, 4-h time point, non-linear regression, read-out: Inhibition constant Ki ADAM17
T1 construct: purchased R&D systems, Inc
From the text: (§1) A fluorescence based enzymatic assay was used to measure the cleavage of fluorogenic TNF-α and L-selectin (CD62L) peptides by either recombinant ADAMs or PBMC from healthy donors. The fluorogenic substrate, synthesized by Biomatik^3, was a Dabcyl (4-(4-dimethylaminophenylazo)benzoyl)- and Edans (5-[(2-aminoethyl)amino]naphthalene-1-sulfonic acid)- conjugated 12 amino acid peptide: Dabcyl-[…]-Edans that corresponds to the extracellular membrane proximal region of CD62L. […] The cleavage was measured in a kinetic assay every 3 min for 4 h in black 96-well plates using a Synergy_h1 fluorescent plate reader (BioTek) with 340 nm excitation and 490 nm emission wavelengths. […] PBMC were stimulated with anti-CD3 antibody for 2–4 days as described above.
(§2) 96-well plate with data recorded every 3 minutes for 4 hours using a Synergy_h1 fluorescent plate reader. Each enzymatic reaction contained 50 -200 ng
(§3) Figure 2B and 2C bar diagrams are generated using the
(§4) data points at 4 hour time point of the enzymatic cleavages.

[2] = molecular target: T2, recombinant ADAM10 (Homo sapiens, UniProt O14672); assay: Kinetic cleavage of fluorogenic TNF-α peptide ES003 by recombinant ADAM10; format: biochemical; conditions: for inhibition of ADAM10 cleavage of ES003: 2 μM compound; for Ki: ES003 substrate, 4-h time point, non-linear regression, read-out: Inhibition constant Ki ADAM10
T2 construct: purchased R&D systems, Inc
T2 sequence (O14672 214-748): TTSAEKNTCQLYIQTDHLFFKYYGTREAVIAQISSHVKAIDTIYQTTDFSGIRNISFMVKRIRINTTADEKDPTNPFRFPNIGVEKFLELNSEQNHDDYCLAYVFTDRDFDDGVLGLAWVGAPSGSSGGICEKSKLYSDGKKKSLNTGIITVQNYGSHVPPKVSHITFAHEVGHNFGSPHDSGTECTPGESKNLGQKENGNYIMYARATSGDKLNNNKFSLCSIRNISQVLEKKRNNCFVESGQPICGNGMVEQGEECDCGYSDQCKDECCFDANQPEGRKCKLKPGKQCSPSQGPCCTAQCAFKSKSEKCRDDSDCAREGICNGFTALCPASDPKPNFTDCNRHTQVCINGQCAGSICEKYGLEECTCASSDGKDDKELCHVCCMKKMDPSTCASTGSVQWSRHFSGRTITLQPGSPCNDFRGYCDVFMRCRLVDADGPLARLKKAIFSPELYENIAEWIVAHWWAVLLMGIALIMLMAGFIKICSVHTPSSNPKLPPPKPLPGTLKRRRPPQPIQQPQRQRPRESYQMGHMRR
From the text: as §1, §2, §3, §4

[3] = system: HIV-1BAL; assay: HIV-1BAL infection of CD8-depleted PBMC, FACS (intracellular p24, CD4, CD62L); format: cell-based; conditions: for accumulation of infected CD4−/CD62L− T cells (loss of CD62L): HIV-1BAL infected cells; for effect on HIV-1BAL infection (intracellular p24): day 7 post infection, compounds at 100 μM, GI254023X at 250 μM
From the text: The use of healthy human peripheral blood mononuclear cells (PBMC) is approved by the Department of Transfusion Medicine at the Clinical Center of National Institutes of Health. The use of PBMC from HIV-1 infected individuals for the study was approved under protocol #02-I-0202 by the Institutional Review Board (IRB) of National Institutes of Health with written informed consent from all donors. Peripheral blood mononuclear cells (PBMCs) from anonymous healthy donors were isolated by Ficoll-Paque gradient, and cultured in RPMI 1640 supplemented with 10% FBS, 1%Penicillin/streptomycin, 1% HEPES buffer and 20 U/mL IL-2 (culture media); and stimulated with 0.2 μg/mL anti-CD3 antibody (okt3) for 2 days. CD8^+ T cells were depleted prior to infection using the Stemcell CD8 positive selection kit according to manufacturer’s instructions. CD8-depleted PBMCs were plated at 2×10^6 cells/ml in 48-well plates in 1 mL culture media with various inhibitors for 60 min prior to the addition of ~80 TCID50 HIV-1BAL or HIV-1LAI. Inhibitors were replenished during media change every 3 days. The infections were proceeded with or without inhibitors for 6 days or otherwise specified number of days and then analyzed by FACS staining using fluorescent labeled CD4-BV510, CD62L-APC and CD3-PEC7 antibodies (BD Biosciences). Cells were then washed and permeabilized with CytoFix/CytoPerm (BD Biosciences) solution before intracellular staining for HIV p24 antigen using FITC conjugated anti-p24 antibody clone KC57 (Beckman Coulter, catalog 6604665). All assays were performed with cell viabilities >80%. Replication competent HIV-1 viruses were obtained from the NIH AIDS Reagent Program^4, and expanded by infecting activated CD8-depleted PBMCs, and TCID50 was determined by p24 ELISA.

[4] = molecular target: T3, recombinant HIV-1 protease (Human immunodeficiency virus type 1 group M subtype B, UniProt P04585); assay: HIV-1 protease fluorogenic substrate cleavage; format: biochemical; conditions: 100nM saquinavir or nelfinavir; MMP inhibitors up to 10uM
T3 construct: recombinant HIV-1 protease; purchased Sigma-Aldrich SRP2151
Method: HIV-1 protease enzymatic activity was assayed in black 96-well plates at room temperature using a Synergy_h1 fluorescent plate reader with 340 nm excitation and 490 nm emission wavelengths (BioTek). Each enzymatic reaction consisted of a mixture of 100 ng of recombinant HIV-1 protease (Sigma-Aldrich catalog SRP2151), 5 μM concentration of a fluorogenic substrate Arg-Glu(EDANS)-[…]DABCYL)-Arg (Sigma-aldrich catalog H6660), and various concentrations of inhibitor compounds in 100 μL of assay buffer (0.15 M sodium chloride, 1.0 mM EDTA, 1.0 mM DTT, 0.1 M sodium acetate, pH 5.0). The fluorescence of the cleavage reaction was continuously read at every 30 s for a total of 40 min.

[5] = system: PBMC; assay: PBMC viability (AO/PI staining); format: cell-based, human; conditions: for impact on cell viabilities in HIV-1BAL infection: PBMC post infection with HIV-1BAL; for PBMC viability at 24hr post treatment: 10-500 μM of MMP inhibitors for 24hours
Method: PBMC from de-identified healthy donors were obtained with informed consent from the Department of Transfusion Medicine, National Institutes of Health under Biological reagent Registry RD-14-IX-12 approved by NIH biological safety board. CD8-depleted PBMCs, either stimulated or non-stimulated with 10 μg/mL phytohaemagglutinin (PHA) or anti-CD3 antibody (with or without conjugated beads), were plated at 2×10^6 cells/ml in 48 well plates in RPMI 1640 + 10%FBS (R10) to a final volume of 1 mL in each well. IL-2 was added at a final concentration of 20 U/mL. CD3 antibody okt3 was used at ~0.2 μg/mL final concentration. Compounds were prepared in appropriate solvents according to the manufacturer’s instructions, diluted to working concentrations using RPMI 1640 + 10%FBS (R10), and added to the cell cultures for 6–24 h for CD62L shedding, and 48 h for TNF-α release. Supernatants were collected and assessed using either the CD62L or TNF-α Duo Set ELISA kit according to manufacturer’s instructions (R&D Systems, Inc.). The viability of cells treated with compounds was assessed by acridine orange / propidiom iodide (AO/PI Logosbio catalog F23001) staining using Luna-FL cell counter following the manufacture’s instruction.^2

T1 sequence (P78536 215-824): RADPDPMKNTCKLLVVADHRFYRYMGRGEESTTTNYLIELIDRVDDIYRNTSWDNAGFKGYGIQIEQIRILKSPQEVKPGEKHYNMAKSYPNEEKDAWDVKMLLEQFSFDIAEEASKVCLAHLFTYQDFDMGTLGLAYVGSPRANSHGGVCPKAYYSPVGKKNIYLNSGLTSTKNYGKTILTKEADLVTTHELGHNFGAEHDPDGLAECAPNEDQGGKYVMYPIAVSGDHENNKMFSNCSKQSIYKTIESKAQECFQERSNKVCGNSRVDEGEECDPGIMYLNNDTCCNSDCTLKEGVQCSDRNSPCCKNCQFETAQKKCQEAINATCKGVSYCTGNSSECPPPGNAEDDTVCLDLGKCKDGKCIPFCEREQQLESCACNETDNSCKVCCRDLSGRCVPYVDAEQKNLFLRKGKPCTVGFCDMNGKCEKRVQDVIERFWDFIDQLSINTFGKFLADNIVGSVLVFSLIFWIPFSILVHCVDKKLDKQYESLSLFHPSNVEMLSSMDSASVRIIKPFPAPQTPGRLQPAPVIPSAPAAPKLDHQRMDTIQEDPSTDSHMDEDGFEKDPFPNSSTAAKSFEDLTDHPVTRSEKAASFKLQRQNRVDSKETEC

## CC1(C)SCCN(S(=O)(=O)c2ccc(Oc3ccncc3)cc2)[C@H]1C(=O)NO [prinomastat]
[1]
  concentrations inhibiting ADAM17 enzymatic activity: 20 to 50 nM
  Ki: 48 ± 36 nM
[1]; 2 μM compound
  inhibition of ADAM17 cleavage of ES003: inhibited both ADAM10 and 17
[2]
  concentrations inhibiting ADAM10 enzymatic activity: 20 to 50 nM
  inhibition of ADAM10 cleavage of ES003: inhibited both ADAM10 and 17
  Ki: 2 ± 0.4 nM
[3]
  accumulation of infected CD4−/CD62L− T cells (loss of CD62L): reduced the accumulation
  effect on HIV-1BAL infection (intracellular p24): inhibited HIV-1BAL infections
[4]
  effect on HIV protease cleavage of fluorogenic substrate: none of the MMP inhibitors, including BB-94, prinomastat, GM6001 and DMDP, inhibited the activity of HIV protease
[5]
  impact on cell viabilities in HIV-1BAL infection: without significant impact to cell viabilities

## CNC(=O)[C@H](Cc1ccccc1)NC(=O)[C@H](CC(C)C)[C@H](CSc1cccs1)C(=O)NO [BB-94, Batimastat]
[2]
  concentrations inhibiting ADAM10 enzymatic activity: 20 to 50 nM
  inhibition of ADAM10 cleavage of ES003: inhibited both ADAM10 and 17; also recorded: indistinguishable from that of ES003-only curve without the enzyme
[3]; 100μM, added day 0, 3, 5 post infection
  inhibition when added on day 3 and 5 after initiation of infection: progressive reduction in its inhibition
[3]
  accumulation of infected CD4−/CD62L− T cells (loss of CD62L): reduced the accumulation
  effect on HIV-1BAL infection (intracellular p24): inhibited HIV-1BAL infections
[4]
  effect on HIV protease cleavage of fluorogenic substrate: none of the MMP inhibitors, including BB-94, prinomastat, GM6001 and DMDP, inhibited the activity of HIV protease
[5]
  PBMC viability at 24hr post treatment: No significant decrease in the viability
  impact on cell viabilities in HIV-1BAL infection: without significant impact to cell viabilities

## CNC(=O)[C@@H](NC(=O)[C@H](CCCc1ccccc1)[C@H](C)N(O)C=O)C(C)(C)C [GI254023X]
[1]
  Ki: 3600 ± 380 nM
[2]
  inhibition of ADAM10 cleavage of ES003: preferentially inhibited the enzymatic activity of ADAM10 compared to ADAM17
  Ki: 11 ± 9 nM
[3]
  accumulation of infected CD4−/CD62L− T cells (loss of CD62L): did not inhibit the accumulation
  effect on HIV-1BAL infection (intracellular p24): fail to significantly suppress the viral infections
[5]
  PBMC viability at 24hr post treatment: No significant decrease in the viability
